One experiment relates to JFH-1 HCV. Particulars: relative to mock-treated HCV infected control; doses in μM. From the text:
In vitro assay for anti-HCV efficacy. HCV studies typically involve infected patients and chimpanzees. However, recently, a robust HCV infection system was developed with cells derived from the Huh-7 human hepatoma cell line. It is based on the unique JFH-1 HCV consensus cDNA derived from an HCV patient. Using reverse genetics, the infectious virus can be rescued from this HCV clone. The recovered viable JFH virus can be passaged serially in Huh-7 cells. For this reason, this system is amenable for evaluating the activity of test compound for their anti-HCV efficacy.
Briefly, 6×10^3 Huh7-1 cells are incubated overnight in each well of collagen-coated BioCoat 96-well plates (BD Biosciences, Bedford, Mass.) in 0.2 ml 10% medium composed of Dulbecco's modified Eagle's medium supplemented with 10% fetal bovine serum. Subsequently, at 2 day intervals, the cultures are replenished with fresh 0.2 ml 10% medium. After the cultures become confluent, they continue to be replenished at 2 day intervals with fresh 0.2 ml 10% medium that also includes 1% dimethyl sulfoxide (DMSO). After 20 days of these replenishments, the Huh7-1 cultures are incubated with fresh 1% medium (same as 10% medium except that the serum level is 1%) containing HCV at a multiplicity of infection (MOI) of 0.05 focus forming units (ffu)/cell. The HCV (JFH-lwt Huh7) stock titer is 1.5×10^5 ffu/mL. The next day (day 1 post-infection) and 2 days later (day 3 post-infection) the media are replenished with fresh 1% medium containing the test compounds dissolved in DMSO. On the 5th day of treatment with the compounds, cell lysates are collected for RNA isolation and Real Time-quantitative Reverse Transcription Polymerase Chain Reaction (RT-qPCR) and culture media are collected for cytotoxicity analysis.
Total RNA is isolated from cells by the guanidine thiocyanate method using standard protocols. One μg RNA is used for cDNA synthesis using TaqMan reverse transcription reagents (Applied Biosystems, Foster City, Calif.) followed by real-time PCR using an Applied Biosystems 7300 real-time thermocycler. Thermal cycling consists of initial denaturation of 10 min at 95° C. followed by 40 cycles of denaturation (15 s at 95° C.) and annealing/extension (1 m at 60° C.). HCV and human glyceraldehyde-3-phosphate dehydrogenase (GAPDH) RNA levels are determined relative to a standard curve of serial dilutions of plasmid containing JFH-1 HCV or GAPDH cDNA. The PCR primers used to detect GAPDH and HCV are: GAPDH (NMX002046) 5′-[…]-3′(SEQ ID NO: 16) (sense) and 5′-[…]-3′(SEQ ID NO: 17) (anti-sense) JFH-1 HCV (AB047639) 5′-[…]-3′(SEQ ID NO: 18) (sense) and 5′-[…]-3′(SEQ ID NO: 19) (anti-sense).
Take `COc1cccc(-c2ccccc2NC(=O)C2CCN(Cc3cc(C)c(O)c(C)c3)CC2)c1` [Example 24]: the “intracellular HCV RNA levels (FIGS. 1A, 1B, 1C)” value was “dose dependent decrease in HCV RNA levels”.

Staying with this experiment, now noted: viral titer at 5 μM or 15 μM compared to untreated control.
Consider `Cc1ccc(CN2CCC(C(=O)Nc3ccc(Oc4ccccc4F)cc3)CC2)o1` [Example 94], for which the “HCV Antiviral Activity” value is reported as “+ (“+” corresponds to ≦60% viral titer at 15 μM)”.

As to `COc1cccc(CN2CCC(C(=O)Nc3ccc(Oc4ccccc4F)cc3)CC2)c1` [Example 70], the “HCV Antiviral Activity” value is given as “+ (“+” corresponds to ≦60% viral titer at 15 μM)”.

Regarding `COc1cccc(CN2CCC(C(=O)Nc3cccc(-c4cccc(F)c4)c3)CC2)c1O` [Example 91], the “HCV Antiviral Activity” value is given as “++ (“++” corresponds to ≦60% viral titer at 5 μM)”.

Consider `COc1ccc(CN2CCC(C(=O)Nc3ccc(Oc4ccccc4F)cc3)CC2)c(O)c1` [Example 21], for which the “HCV Antiviral Activity” value is on record as “+++ (“+++” corresponds to ≦30% viral titer at 5 μM)”.

Consider `COc1cccc(-c2ccccc2NC(=O)C2CCN(Cc3cc(C)c(O)c(C)c3)CC2)c1` [Example 24], for which the “HCV Antiviral Activity” value is on record as “+++ (“+++” corresponds to ≦30% viral titer at 5 μM)”.

On to `CCOc1ccc(CN2CCC(C(=O)Nc3ccccc3-c3cccc(OC)c3)CC2)cc1` [Example 48], for which the “HCV Antiviral Activity” value is given as “− (“−” corresponds to >60% viral titer at 15 μM (highest concentration tested))”.

As for `C=CCn1cc(CN2CCC(C(=O)Nc3cccc(-c4cccc(F)c4)c3)CC2)c(C)n1` [Example 93], the “HCV Antiviral Activity” value is “++ (“++” corresponds to ≦60% viral titer at 5 μM)”.

Regarding `COc1cccc(-c2ccccc2NC(=O)C2CCN(CCC(C)c3ccccc3)CC2)c1` (centres unmarked) [Example 36], the “HCV Antiviral Activity” value was “+ (“+” corresponds to ≦60% viral titer at 15 μM)”.

On to `CCn1ncc(CN2CCC(C(=O)Nc3cccc(-c4cccc(F)c4)c3)CC2)c1C` [Example 95], for which the “HCV Antiviral Activity” value is listed as “++ (“++” corresponds to ≦60% viral titer at 5 μM)”.

With `CCn1cc(CN2CCC(C(=O)Nc3cccc(-c4cccc(Cl)c4)c3)CC2)cn1` [Example 78], the “HCV Antiviral Activity” value was “++ (“++” corresponds to ≦60% viral titer at 5 μM)”.

As to `COc1ccccc1CN1CCC(C(=O)Nc2ccc(-c3nc4ccccc4[nH]3)cc2)CC1` [Example 23], the “HCV Antiviral Activity” value was “+++ (“+++” corresponds to ≦30% viral titer at 5 μM)”.

In the case of `CC(C)Cc1cc(CN2CCC(C(=O)Nc3ccc(Oc4ccccc4F)cc3)CC2)n[nH]1` [Example 86], the “HCV Antiviral Activity” value was “+ (“+” corresponds to ≦60% viral titer at 15 μM)”.

On to `COc1ccc(/C=C/CN2CCC(C(=O)Nc3cccc(-c4ccco4)c3)CC2)cc1` [Example 55], for which the “HCV Antiviral Activity” value is “− (“−” corresponds to >60% viral titer at 15 μM (highest concentration tested))”.

Take `Cc1ccc(CN2CCC(C(=O)Nc3cccc(-c4cc5ccccc5[nH]4)c3)CC2)o1` [Example 45]: the “HCV Antiviral Activity” value is given as “− (“−” corresponds to >60% viral titer at 15 μM (highest concentration tested))”.

Turning to `COc1cccc(-c2cccc(NC(=O)C3CCN(CC=C(C)C)CC3)c2)c1` [Example 69], the “HCV Antiviral Activity” value was “++ (“++” corresponds to ≦60% viral titer at 5 μM)”.

With `C=CCn1cc(CN2CCC(C(=O)Nc3cccc(-c4cccc(Cl)c4)c3)CC2)c(C)n1` [Example 72], the “HCV Antiviral Activity” value is “+ (“+” corresponds to ≦60% viral titer at 15 μM)”.

Turning to `COc1ccc(O)c(CN2CCC(C(=O)Nc3ccc(Oc4ccccc4F)cc3)CC2)c1` [Example 81], the “HCV Antiviral Activity” value is given as “++ (“++” corresponds to ≦60% viral titer at 5 μM)”.

Consider `COc1cccc(CN2CCC(C(=O)Nc3ccccc3-c3cccc(OC)c3)CC2)c1` [Example 33], for which the “HCV Antiviral Activity” value is “+ (“+” corresponds to ≦60% viral titer at 15 μM)”.

Consider `O=C(Nc1cccc(-c2ccco2)c1)C1CCN(C(=O)c2n[nH]c3c2CCC3)CC1` [Example 54], for which the “HCV Antiviral Activity” value is “− (“−” corresponds to >60% viral titer at 15 μM (highest concentration tested))”.

For `O=C(Nc1ccc(-c2nc3ccccc3[nH]2)cc1)C1CCN(Cc2cc3ccccc3[nH]2)CC1` [Example 47], the “HCV Antiviral Activity” value is listed as “− (“−” corresponds to >60% viral titer at 15 μM (highest concentration tested))”.

On to `Cc1nc(C)c(CN2CCC(C(=O)Nc3cccc(-c4cccc(F)c4)c3)CC2)nc1C` [Example 79], for which the “HCV Antiviral Activity” value is reported as “++ (“++” corresponds to ≦60% viral titer at 5 μM)”.

Turning to `CC(C)n1cc(CN2CCC(C(=O)Nc3cccc(-c4cccc(Cl)c4)c3)CC2)cn1` [Example 82], the “HCV Antiviral Activity” value is “+ (“+” corresponds to ≦60% viral titer at 15 μM)”.

Regarding `COc1cccc(-c2ccccc2NC(=O)C2CCN(Cc3ccc(F)cc3OC)CC2)c1` [Example 34], the “HCV Antiviral Activity” value is listed as “+ (“+” corresponds to ≦60% viral titer at 15 μM)”.

Consider `CCCn1ncc(CN2CCC(C(=O)Nc3ccccc3-c3cccc(OC)c3)CC2)c1C` [Example 80], for which the “HCV Antiviral Activity” value is on record as “+ (“+” corresponds to ≦60% viral titer at 15 μM)”.

On to `COc1cccc(-c2ccccc2NC(=O)C2CCN(Cc3cccc4ccccc34)CC2)c1` [Example 71], for which the “HCV Antiviral Activity” value was “+ (“+” corresponds to ≦60% viral titer at 15 μM)”.

As for `O=C(Nc1cccc(-c2cscn2)c1)C1CCN(C/C=C/c2ccc(F)cc2)CC1` [Example 52], the “HCV Antiviral Activity” value was “− (“−” corresponds to >60% viral titer at 15 μM (highest concentration tested))”.

As for `CCCCc1nc(CN2CCC(C(=O)Nc3cccc(-c4cccc(F)c4)c3)CC2)c[nH]1` [Example 27], the “HCV Antiviral Activity” value is “++ (“++” corresponds to ≦60% viral titer at 5 μM)”.

On to `O=C(Nc1cccc(-c2ccco2)c1)C1CCN(Cc2nc3ccc(F)cc3[nH]2)CC1` [Example 49], for which the “HCV Antiviral Activity” value is given as “− (“−” corresponds to >60% viral titer at 15 μM (highest concentration tested))”.

As to `O=C(Nc1cccc(-c2cccc(F)c2)c1)C1CCN(Cc2ccc(O)cc2)CC1` [Example 26], the “HCV Antiviral Activity” value is “++ (“++” corresponds to ≦60% viral titer at 5 μM)”.

Turning to `COc1cc(CN2CCC(C(=O)Nc3cccc(-c4cccc(Cl)c4)c3)CC2)ccc1O` [Example 42], the “HCV Antiviral Activity” value is listed as “+ (“+” corresponds to ≦60% viral titer at 15 μM)”.

Turning to `O=C(Nc1ccc(-c2nc3ccccc3[nH]2)cc1)C1CCN(CC2CC=CCC2)CC1` (centres unmarked) [Example 92], the “HCV Antiviral Activity” value was “+ (“+” corresponds to ≦60% viral titer at 15 μM)”.

Turning to `O=C(Nc1cccc(-c2cccc(F)c2)c1)C1CCN(Cc2ccc3nsnc3c2)CC1` [Example 90], the “HCV Antiviral Activity” value is “+ (“+” corresponds to ≦60% viral titer at 15 μM)”.

Take `CSCCCN1CCC(C(=O)Nc2cccc(-c3cc4ccccc4[nH]3)c2)CC1` [Example 46]: the “HCV Antiviral Activity” value is listed as “− (“−” corresponds to >60% viral titer at 15 μM (highest concentration tested))”.

Consider `O=C(Nc1cccc(-c2cccc(Cl)c2)c1)C1CCN(Cc2cccc(O)c2)CC1` [Example 50], for which the “HCV Antiviral Activity” value is listed as “− (“−” corresponds to >60% viral titer at 15 μM (highest concentration tested))”.

Regarding `O=C(Nc1ccc(-c2nc3ccccc3[nH]2)cc1)C1CCN(Cc2cccc(F)c2)CC1` [Example 96], the “HCV Antiviral Activity” value is “+ (“+” corresponds to ≦60% viral titer at 15 μM)”.

For `COc1cc(CN2CCC(C(=O)Nc3ccc(Oc4ccccc4F)cc3)CC2)ccc1O` [Example 85], the “HCV Antiviral Activity” value is reported as “++ (“++” corresponds to ≦60% viral titer at 5 μM)”.

`COc1cccc(-c2ccccc2NC(=O)C2CCN(CC(C)(C)C)CC2)c1` [Example 39]: the “HCV Antiviral Activity” value is “+ (“+” corresponds to ≦60% viral titer at 15 μM)”.

Take `Cc1nnc(-c2cccc(NC(=O)C3CCN(C(=O)c4ccco4)CC3)c2)s1` [Example 41]: the “HCV Antiviral Activity” value is given as “+ (“+” corresponds to ≦60% viral titer at 15 μM)”.

For `O=C(Nc1ccc(Oc2ccccc2)nc1)C1CCN(Cc2ccc(Cl)s2)CC1` [Example 83], the “HCV Antiviral Activity” value is “++ (“++” corresponds to ≦60% viral titer at 5 μM)”.

For `O=C(Nc1cccc(-c2ccn[nH]2)c1)C1CCN(Cc2cccc3ccccc23)CC1` [Example 43], the “HCV Antiviral Activity” value was “− (“−” corresponds to >60% viral titer at 15 μM (highest concentration tested))”.

As for `O=C(Nc1cccc(-c2ccco2)c1)C1CCN(Cc2cccc3cccnc23)CC1` [Example 40], the “HCV Antiviral Activity” value is recorded as “+ (“+” corresponds to ≦60% viral titer at 15 μM)”.

Regarding `O=C(Nc1cccc(-c2cscn2)c1)C1CCN(Cc2cccc(-c3ccco3)c2)CC1` [Example 35], the “HCV Antiviral Activity” value is “+ (“+” corresponds to ≦60% viral titer at 15 μM)”.

Turning to `COc1cccc(-c2ccccc2NC(=O)C2CCN(Cc3nc(C)c(C)nc3C)CC2)c1` [Example 87], the “HCV Antiviral Activity” value is listed as “++ (“++” corresponds to ≦60% viral titer at 5 μM)”.

(Values after patent US9511070B2, “Heterocyclyl carboxamides for treating viral diseases” (NOVADRUG, LLC, priority 2012, dated 2016).)
